Source: ChEMBL document CHEMBL5728724, “6-aryl-7-substituted-3-(1H-pyrazol-5-yl)-7H-[1,2,4]triazolo[3,4-b][1,3,4]thiadiazines as inhibitors of the STAT3 pathway with anti-proliferative activity” (2021)

Biological target: T1, Signal transducer and activator of transcription 1-alpha/beta (Homo sapiens, UniProt P42224)
T1 sequence (P42224 whole entry): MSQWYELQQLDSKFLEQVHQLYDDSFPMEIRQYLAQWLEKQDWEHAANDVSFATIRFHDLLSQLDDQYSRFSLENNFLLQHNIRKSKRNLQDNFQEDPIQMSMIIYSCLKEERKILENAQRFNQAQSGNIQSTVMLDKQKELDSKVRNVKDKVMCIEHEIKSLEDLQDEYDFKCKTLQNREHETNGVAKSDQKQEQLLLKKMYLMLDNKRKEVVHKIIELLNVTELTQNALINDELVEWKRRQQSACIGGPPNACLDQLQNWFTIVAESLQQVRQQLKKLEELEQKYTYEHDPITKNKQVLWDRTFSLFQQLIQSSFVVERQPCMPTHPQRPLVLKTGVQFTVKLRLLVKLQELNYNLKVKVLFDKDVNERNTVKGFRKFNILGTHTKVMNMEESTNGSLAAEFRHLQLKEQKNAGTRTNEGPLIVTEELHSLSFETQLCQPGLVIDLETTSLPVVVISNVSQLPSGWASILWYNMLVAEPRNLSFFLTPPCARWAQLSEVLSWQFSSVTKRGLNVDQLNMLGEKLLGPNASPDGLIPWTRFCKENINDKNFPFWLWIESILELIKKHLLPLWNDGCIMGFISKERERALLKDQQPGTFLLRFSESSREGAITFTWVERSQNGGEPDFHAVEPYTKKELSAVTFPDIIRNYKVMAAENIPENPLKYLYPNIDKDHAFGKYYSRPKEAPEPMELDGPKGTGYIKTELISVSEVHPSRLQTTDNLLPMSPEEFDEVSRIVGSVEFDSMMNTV
Test: Bioassay: Compound samples (in 3-5 mg quantities) were evaluated in a variety of assays. All compound submissions were fully characterized (1H, 13C, IR, FIRMS), satisfied purity criteria (≥95% LC/MC, ELS).

Row | Structure (SMILES) | IC50 [µM]
1 | C1=Nn2c(nnc2-c2[nH]nc3c2CCC3)SC1 | > 50
2 | Clc1ccc(C2=Nn3c(nnc3-c3cc(-c4ccccc4)n[nH]3)SC2)s1 | > 50
3 | c1ccc(C2=Nn3c(nnc3-c3cc(-c4ccccc4)[nH]n3)SC2)cc1 | > 50
4 | Clc1ccc(C2=Nn3c(nnc3-c3[nH]nc4c3CCC4)SC2)s1 | > 50
5 | C1CCC(C2=Nn3c(nnc3-c3[nH]nc4c3CCC4)SC2)CC1 | > 50
6 | c1ccc(-c2cc(-c3nnc4n3N=C(c3ccncc3)CS4)[nH]n2)cc1 | > 50
7 | Clc1ccc(C2=Nn3c(nnc3-c3[nH]nc4c3CCC4)SC2)cc1 | > 50
8 | c1cc(C2=Nn3c(nnc3-c3[nH]nc4c3CCC4)SC2)ccn1 | > 50
9 | c1ccc(-c2cc(-c3nnc4n3N=C(C3CCCCC3)CS4)[nH]n2)cc1 | > 50
10 | CC1Sc2nnc(-c3cc(-c4ccc(F)cc4)n[nH]3)n2N=C1c1ccccc1 (centres undefined) | > 30
11 | Clc1ccc(C2=Nn3c(nnc3-c3cc(-c4ccccc4)n[nH]3)SC2)cc1Cl | > 50
12 | CC(C)C1Sc2nnc(-c3[nH]nc4c3CCC4)n2N=C1c1ccc(Cl)c(Cl)c1 (centres undefined) | > 50
13 | c1ccc(C2=Nn3c(nnc3-c3[nH]nc4c3CCC4)SC2)cc1 | > 50
14 | COc1ccc(C2=Nn3c(nnc3-c3[nH]nc4c3CCC4)SC2C)cc1 (centres undefined) | > 50
15 | CC1=Nn2c(nnc2-c2[nH]nc3c2CCC3)SC1 | > 50
16 | C1=Nn2c(nnc2-c2cc(-c3ccccc3)n[nH]2)SC1 | > 50
17 | COc1ccc(C2=Nn3c(nnc3-c3[nH]nc4c3CCC4)SC2C(C)C)cc1 (centres undefined) | > 50
18 | COc1ccc(C2=Nn3c(nnc3-c3cc(-c4ccc(F)cc4)n[nH]3)SC2C)cc1 (centres undefined) | > 30
19 | CC1=Nn2c(nnc2-c2cc(-c3ccccc3)[nH]n2)SC1 | > 50
